# Source: PMC4865820, “Branched Peptide, B2088, Disrupts the Supramolecular Organization of Lipopolysaccharides and Sensitizes the Gram-negative Bacteria” (Scientific Reports, 2016)
# Positions of bridges follow the written chain, without caps; N, C: chain ends. Residues, ends and D or L forms follow the SMILES beside them. Chains are numbered I, II in the order given.
# Legend:
# P. aeruginosa ATCC 9027 = assay: Outer membrane permeability assay (NPN); format: cell-based; conditions: no unit in table; Fig. S5 axis [Peptide], μM; 10 μM NPN, 5 mM HEPES pH 7.4, ex 355/em 405 nm; average of two titrations; read-out: PC50 (peptide concentration for half-maximal NPN intensity, OM permeability)
# Method: The ability of each peptide to permeabilize the OM of Gram-negative organisms was determined using the hydrophobic fluorescent probe 1-N-phenylnaphthylamine (NPN) as previously reported. P. aeruginosa ATCC 9027 cells from an overnight MHB culture were harvested after centrifuging at 3000 rpm for 10 minutes. The pellet was washed twice, suspended in 5 mM HEPES (N- 2-hydroxyethylpiperazine-N’-2 ethanesulfonic acid) buffer (pH 7.4) and adjusted to an OD600 of 0.200. A suspension containing 600 μl of bacteria cells and 1 μl of a concentrated stock solution of NPN was mixed into a 10 mm stirred quartz cuvette so that the final concentration of the probe remained 10 μM. Aliquots containing 1 μl of each peptide in various concentrations (100, 50, 25, 15, 10, 5, 2.5 and 1 μg/ml) were added upon NPN dye stabilization. The fluorescence intensity was monitored using a Quanta Master spectrophotometer with a constant slit width of 0.5 nm, excitation and emission wavelengths set at 355 nm and 405 nm respectively. The peptide concentration required for half-maximal intensity (PC50) was determined by sigmoidal curve fitting using Graphpad Prism software. The experimental data is average of two independent titration experiments.
# P. aeruginosa ATCC 27853 [1] = format: cell-based; conditions: ATCC 27853; for Fractional inhibitory concentration of peptide/PMB, combination with Genta: first number in parenthesis; for Fractional inhibitory concentration of antibiotic, Genta combination: second number in parenthesis
# Method: (§1) The synergism between peptides with conventional antibiotics was evaluated using checkerboard assays. For a comparison polymyxin B (PMB) was also tested against each antibiotic. From their stock solutions, two-fold dilutions of each antibiotic and peptide to 1× MIC were prepared in MHB. 50 μl of each peptide concentration was added into the wells of a 96-well polystyrene plates (SPL Life Sciences Co. Ltd, Korea) in a horizontal orientation and the same volume of each antibiotic concentration were then added in a vertical orientation. Bacterial suspensions were prepared in MHB to yield final cell density of ~10^6 CFU/ml and 100 μl of bacterial suspension was mixed with each peptide-antibiotic combinations. This procedure was repeated for wells containing 200 μl of peptide alone and 200 μl of antibiotic alone in various concentrations. The positive and negative controls contained 200 μl of inoculum and MHB alone respectively. The plates were incubated at 37 °C for 24 hours and the optical density at 600 nm (OD600) was monitored as before. Fractional inhibitory concentration index (FICI) for all antibiotic- peptide combinations was calculated through the summation of (MIC of peptide in the combination/ MIC of peptide alone) and (MIC of antibiotics in combination/MIC of antibiotic alone). The experiments were performed in two independent duplicates and the combinations that gave the lowest FICI values was reported.
# P. aeruginosa DR4877/07 = format: cell-based; conditions: for Fractional inhibitory concentration of peptide/PMB, combination with Chloarm / Fractional inhibitory concentration of peptide/PMB, combination with Erythro / Fractional inhibitory concentration of peptide/PMB, combination with Levo / Fractional inhibitory concentration of peptide/PMB, combination with Tobra: first number in parenthesis; for Fractional inhibitory concentration of antibiotic, Chloarm combination / Fractional inhibitory concentration of antibiotic, Erythro combination / Fractional inhibitory concentration of antibiotic, Levo combination / Fractional inhibitory concentration of antibiotic, Tobra combination: second number in parenthesis
# Method: as §1
# P. aeruginosa 23155 = format: cell-based; conditions: 23155, 24 h
# Method: (§2) MIC of each peptide was determined using the microdilution method in a 96 well microtitre plates (SPL Life Sciences Co., Ltd, Korea). Two-fold serial dilutions of each peptide in Mueller-Hinton Broth (MHB) was prepared from a 1 mg/ml stock solution of the peptide in the same broth, to obtain a final concentration in the range of 0.0976–50 μg/ml in each well. Bacterial suspensions (P. aeruginosa ATCC 27853, P. aeruginosa 4877, P. aeruginosa 23155, K. pneumoniae ATCC 10031 and K. pneumoniae 4299) were prepared by suspending the overnight cultured bacteria in saline and adjusting the inoculum to ~10^8 colony forming units (CFU) per ml. A further 150-fold dilution was then prepared in MHB to achieve a final cell density of 10^5–10^6 CFU/ml. In each well, 100 μl of inoculum was mixed with the equal volume of peptides at their 2× concentration. Positive and negative controls contained 200 μl of inoculum (without any peptide) and broth alone (no peptide/inoculum) respectively. Another negative control in which MHB containing 200 μl of peptide alone in its highest concentration tested (50 μg/ml) was also included to ensure that the optical density measured in the test wells was not due to turbidity of the peptides in solution. The 96 well polystyrene plates were then incubated at 37 °C for 24 h and the optical density at 600 nm (OD600) was measured every 30 min continuously using a TECAN microplate reader (TECAN Infinite 200, Austria). All the experiments were performed in two independent duplicates and the MIC was determined as the lowest peptide concentration in which no visible growth was observed.
# K. pneumoniae ATCC10031 = format: cell-based; conditions: ATCC10031, 24 h
# Method: as §2
# K. pneumonia 4299 = assay: microbe, parasite or virus in culture; format: cell-based, K. pneumoniae; conditions: 24 h
# Method: as §2
# P. aeruginosa ATCC 27853 [2] = assay: microbe, parasite or virus in culture; format: cell-based; conditions: ATCC 27853, 24 h
# Method: as §2
# [3] = system: LPS (E. coli serotype 055:B5); assay: BODIPY TR cadaverine (BC) displacement assay with LPS; format: binding; conditions: no unit in table; ED50 values in μM; 5 mM HEPES pH 7.4; duplicates; read-out: BC50 (LPS binding)
# Text: To investigate the interaction of B2088 with LPS, we performed the BODIPY TR cadaverine (BC) displacement assay reported by Wood et al.[22]. The probe binds to the lipid A part of the LPS with moderate affinity and can be displaced by putative LPS-binding molecules. The method was used to probe the affinity of polycationic molecules and LPS binding proteins. First, we determined the affinity of polymyxin B (PMB), a lipopeptide cyclic antibiotic which has a high affinity for LPS. […] Figure 1a,b show the concentration-dependent displacement of LPS/lipid A-bound BC upon addition of B2088. […] To confirm the importance of branching, we determined the BC50 for a linear retrodimer having the amino acid sequence, […] (Fig. 1d). The determined value was 2-fold higher (3.9 ± 0.1 μM) than that of B2088, confirming a weaker affinity of the linear peptide.
# The BC displacement assay was used to determine the ability of each peptide to bind to LPS. The florescent probe, BODIPY TR cadaverine (BC) was purchased from Molecular Probes/ Invitrogen (USA). A stock solution containing 1 mg/ml of LPS (E. coli serotype 055:B5) was prepared in dimethyl sulfoxide (DMSO) and another stock solution containing 1 mg/ml of BC dye was prepared in 5 mM HEPES buffer (pH 7.4). The optimum saturation concentration of BC:LPS ratio was standardized following the protocol provided by Wood et al. (22). From the BC stock, 240 μl was mixed with 500 μl from the LPS stock solution in 5 mM HEPES buffer (pH 7.4) to prepare 20 ml of BC:LPS mixture. Two-fold serial dilutions of each peptide in 5 mM HEPES buffer (pH 7.4) was prepared from their 1 mg/ml stock solutions to obtain a final range of 0.02–25.6 μM. The BC:LPS mixture was added to 100 μl of each peptide congener in a 1:1 ratio in each well of a 96-well black Costar™ polystyrene microtitre plate (Corning Incorporated, NY, USA). The maximum fluorescence intensity (Fmax) was determined using a mixture containing 100 μl PMB (50 μg/ml) and 100 μl BC:LPS solution, as PMB is considered the ‘gold standard’ for LPS-sequestering agents. The minimum fluorescence intensity (F0) was measured using 200 μl of BC:LPS mixture to determine the background noise for this experiment. Fluorescence measurements for each peptide (F) were determined using a microplate reader (Model: TECAN Infinite 200, Austria) with excitation and emission wavelengths set at 580 nm and 620 nm respectively. The percentage of BC displacement was then calculated using the formula: […]
# The experiments were performed in duplicates and the effective concentration required for 50% displacement of BC dye (ED50) from LPS with respect to PMB was determined by curve fitting using Graphpad Prism (CA, USA). A higher ED50 value for the peptide indicates a lower affinity for LPS.
Compound,EC50 (P. aeruginosa ATCC 9027) [µM],"Fractional inhibitory concentration of peptide/PMB, combination with Genta (P. aeruginosa ATCC 27853 [1])","Fractional inhibitory concentration of antibiotic, Genta combination (P. aeruginosa ATCC 27853 [1])","Fractional inhibitory concentration of peptide/PMB, combination with Chloarm (P. aeruginosa DR4877/07)","Fractional inhibitory concentration of peptide/PMB, combination with Erythro (P. aeruginosa DR4877/07)","Fractional inhibitory concentration of peptide/PMB, combination with Levo (P. aeruginosa DR4877/07)","Fractional inhibitory concentration of peptide/PMB, combination with Tobra (P. aeruginosa DR4877/07)","Fractional inhibitory concentration of antibiotic, Chloarm combination (P. aeruginosa DR4877/07)","Fractional inhibitory concentration of antibiotic, Erythro combination (P. aeruginosa DR4877/07)","Fractional inhibitory concentration of antibiotic, Levo combination (P. aeruginosa DR4877/07)","Fractional inhibitory concentration of antibiotic, Tobra combination (P. aeruginosa DR4877/07)",Minimum Inhibitory Concentration against P. aeruginosa 23155 (P. aeruginosa 23155) [µM],Minimum Inhibitory Concentration against K. pneumoniae ATCC10031 (K. pneumoniae ATCC10031) [µM],Minimum Inhibitory Concentration against K. pneumonia 4299 (K. pneumonia 4299) [µM],Minimum Inhibitory Concentration against P. aeruginosa ATCC 27853 (P. aeruginosa ATCC 27853 [2]) [µM],EC50 [3] [µM]
N=C(N)NCCC[C@H](NC(=O)CNC(=O)[C@@H](N)CCCNC(=N)N)C(=O)N[C@@H](CCCCN)C(=O)N[C@@H](Cc1ccc(O)cc1)C(=O)N[C@@H](Cc1ccc(O)cc1)C(=O)N[C@@H](CCCNC(=N)N)C(=O)N[C@@H](CCCNC(=N)N)C(=O)NCCCC[C@H](NC(=O)[C@H](CCCNC(=N)N)NC(=O)[C@H](CCCNC(=N)N)NC(=O)[C@H](Cc1ccc(O)cc1)NC(=O)[C@H](Cc1ccc(O)cc1)NC(=O)[C@H](CCCCN)NC(=O)[C@H](CCCNC(=N)N)NC(=O)CNC(=O)[C@@H](N)CCCNC(=N)N)C(=O)N[C@@H](CCCCN)C(=O)O (I: H-RGRKYYRRKK-OH / II: H-RGRKYYRR; amide I:9-II:C; N-terminus and C-terminus assumed),21.9 ± 0.2,"(0.25,0.25)","(0.25,0.25)",0.25,0.5,0.5,0.25,0.13,0.06,0.25,0.13,4.5,4.5,9.0,4.5,2.5 ± 0.04
N=C(N)NCCC[C@H](NC(=O)CNC(=O)[C@@H](N)CCCNC(=N)N)C(=O)N[C@@H](CCCCN)C(=O)N[C@@H](Cc1c[nH]c2ccccc12)C(=O)N[C@@H](Cc1c[nH]c2ccccc12)C(=O)N[C@@H](CCCNC(=N)N)C(=O)N[C@@H](CCCNC(=N)N)C(=O)NCCCC[C@H](NC(=O)[C@H](CCCNC(=N)N)NC(=O)[C@H](CCCNC(=N)N)NC(=O)[C@H](Cc1c[nH]c2ccccc12)NC(=O)[C@H](Cc1c[nH]c2ccccc12)NC(=O)[C@H](CCCCN)NC(=O)[C@H](CCCNC(=N)N)NC(=O)CNC(=O)[C@@H](N)CCCNC(=N)N)C(=O)N[C@@H](CCCCN)C(=O)O (I: H-RGRKWWRRKK-OH / II: H-RGRKWWRR; amide I:9-II:C; N-terminus and C-terminus assumed),31.1 ± 4.6,0.5,0.06,0.5,"(0.5,0.5)",0.5,0.5,0.13,"(0.5,0.5)",0.25,0.25,9.5,9.5,19,9.5,6.8 ± 0.12
